Columns and labels:
Type in all cases: cell-based, human
Notch signaling [1] = assay: Notch inhibition in pancreatic progenitor cells in Disque platform (DP), qRT-PCR gene expression; settings: 10 μM, 4 days, cells cultured in DP
Excerpt: (§1) Next, Applicant further examined whether other junction signaling pathways critical for β-cell differentiation, such as the Notch signaling pathway, could be supported in the DP, as Notch inhibition in pancreatic progenitor cells is known to promote differentiation into the endocrine lineage and β-cell production. To measure this in the DP, Applicant supplemented the differentiation protocol of pancreatic progenitor cells with Notch inhibitor (NI) [γ-secretase inhibitor, N—[N-(3,5-Difluorophenacetyl)-L-alanyl]-S-phenylglycine t-butyl ester (DAPT) (10 μM)] and examined the cells at the end of pancreatic progenitor cells (stage 4 day 5 (S4d5)) by immunocytochemistry and gene expression analysis (FIGS. 8A-8D). […]
(§2) Compound treatment. […] For the dose-cytotoxicity study, cell viability was measured by AlamarBlue™ assay following the manufacturer's protocol (Invitrogen, Carlsbad, CA, USA).
(§3) Gene Expression Analysis. […] The RNA concentration was determined by measuring absorbance at 260 nm using a spectrophotometer. […] The profiles of gene expression in SC β-cells were quantified for each target (human E-cad, CX-36, ZnT8, Pdx-1, Nkx6.1, Insulin, and glyceraldehyde 3-phosphate dehydrogenase (GAPDH), QuantiTect primary assay). The expression level of target genes was determined by the comparative Ct method, whereby the target is normalized to the endogenous reference (GAPDH) 40. […]

Notch signaling [2] = assay: Notch inhibition in 2D culture, Hes1 gene expression; settings: 10 μM
Excerpt: as §1, §2, §3

[3] = system: pancreatic progenitor cells; assay: Notch inhibition in DP, immunocytochemical staining for Pdx-1 and Nkx6.1; settings: 10 μM, S4d5
Excerpt: Next, Applicant further examined whether other junction signaling pathways critical for β-cell differentiation, such as the Notch signaling pathway, could be supported in the DP, as Notch inhibition in pancreatic progenitor cells is known to promote differentiation into the endocrine lineage and β-cell production. To measure this in the DP, Applicant supplemented the differentiation protocol of pancreatic progenitor cells with Notch inhibitor (NI) [γ-secretase inhibitor, N—[N-(3,5-Difluorophenacetyl)-L-alanyl]-S-phenylglycine t-butyl ester (DAPT) (10 μM)] and examined the cells at the end of pancreatic progenitor cells (stage 4 day 5 (S4d5)) by immunocytochemistry and gene expression analysis (FIGS. 8A-8D). […] Upon establishing the differentiation capabilities of the DP, Applicant then reasoned whether differentiated SC β cells also elicited proper insulin secretion functionality. The DP also supported insulin secretion from SC β cells in response to glucose stimulation, and similar secretion indices were noted between DP and SF (FIG. 3J).
Compound treatment. Cells were seeded into the DP and incubated with their respective media as outlined in the section above and allowed to settle for 24 hours (day 1). […] For the dose-cytotoxicity study, cell viability was measured by AlamarBlue™ assay following the manufacturer's protocol (Invitrogen, Carlsbad, CA, USA). […]

SC β cells [4] = assay: Dose-cytotoxicity study, AlamarBlue assay; settings: 0.032~500 μM
Experimental: Compound treatment. […] For compound treatment (ZnPDs and small molecule cargos), the media were replaced with new media supplemented with prodrug at different concentrations on day 3 and day 6 for a total treatment of 6 days. Cell analyses was performed after 7 days in culture. […] For the dose-cytotoxicity study, cell viability was measured by AlamarBlue™ assay following the manufacturer's protocol (Invitrogen, Carlsbad, CA, USA).
Cell viability test. To determine the viability of SC β-cells in the DP and SF, a Live/Dead Viability and Cytotoxicity Assay Kit (AlamarBlue™, Invitrogen) were used according to the manufacturer's instructions.

SC β cells [5] = assay: Proliferation of SC β cells in DP (EdU or Ki67, flow cytometry)
Experimental: Applicant then compared ZnPD6 and harmine over the range of 0.625 to 20 μM based on the percentage of proliferating mature SC β cells using the c-peptide/EdU co-positive metric, wherein EdU is a proliferation marker that identifies cells undergoing DNA replication in the S phase (FIG. 5D). […] Despite releasing the same drug following ZnPD cleavage, Applicant were interested in determining what caused the difference in cytotoxicity and proliferation between ZnPD6 and unmodified harmine. Applicant then examined harmine and ZnPD6 at their optimal concentrations for proliferation, 10 μM and 20 μM, respectively.
Compound treatment. Cells were seeded into the DP and incubated with their respective media as outlined in the section above and allowed to settle for 24 hours (day 1). For compound treatment (ZnPDs and small molecule cargos), the media were replaced with new media supplemented with prodrug at different concentrations on day 3 and day 6 for a total treatment of 6 days. Cell analyses was performed after 7 days in culture. For targeting study with ZnPD4, cells were treated with ZnPD4 for 2 hours. […] For the dose-cytotoxicity study, cell viability was measured by AlamarBlue™ assay following the manufacturer's protocol (Invitrogen, Carlsbad, CA, USA).
Flow cytometry. […] Cells were analyzed using a BD FACSAria™ II flow cytometer (BD Biosciences, Franklin Lakes, NJ, USA). […]

DYRKIA = assay: NFAT1 nuclear translocation as readout for DYRKIA inhibition
Experimental: Immunocytochemical staining. The Immunofluorescent staining was performed as previously described in the Flow cytometry section. The additional primary antibodies for immunocytochemical staining were used: rabbit polyclonal anti-NFAT1 (1:500, ab244310, Abcam, Cambridge, MA, USA), mouse monoclonal anti-E-cadherin (1:500, Abcam) and rabbit polyclonal anti-connexin 36 (1:500, Abcam). Secondary antibodies were stained using previously described antibodies noted within the flow cytometry method. Cells were then counter-stained with 4′, 6-Diamidino-2-phenylindole (DAPI, MilliporeSigma, Burlington, MA, USA) or 2,5′-Bi-1H-benzimidazole (Hoechst, Invitrogen). HTS imaging was performed using the Opera Phenix™ High Content Screening System (PerkinElmer, Waltham, MA, USA). Fluorescent and bright-field imaging were performed using the Eclipse TE2000-U (Nikon, Tokyo, Japan). Confocal imaging and z-stack 3D reconstruction were performed using LSM 800 with Airyscan (Zeiss, Oberkochen, Germany). Analysis was performed using ImageJ (NIH) and Adobe Photoshop (Adobe, San Jose, CA, USA) software.

SMILES | increase in Pdx-1 expression (Notch signaling [1]; S4d5, vs control) [%] | decrease in hairy and enhancer of split-1 (Hes1) expression (Notch signaling [1]; vs control) [%] | Hes1 expression response to Notch inhibition (Notch signaling [2]) | Pdx-1-positive progenitor cells after Notch inhibition [3] | concentration above which a cytotoxic effect is seen (SC β cells [4]) | population of proliferating monohormonal SC β cells (C-peptide+GCG-EdU+) (SC β cells [5]; DP, flow cytometry, compared to DMSO control or negative control) | optimal concentration for proliferation (SC β cells [5]; SC β cells in DP) [µM] | NFAT1 nuclear translocation over time, in words (DYRKIA; FIG. 5H) | NFAT1 nuclear translocation (DYRKIA; at 24 hours) [%] | NFAT1 nuclear translocation (DYRKIA; value before the decrease) [%]
C[C@H](NC(=O)Cc1cc(F)cc(F)c1)C(=O)N[C@H](C(=O)OC(C)(C)C)c1ccccc1 [DAPT, N—[N-(3,5-Difluorophenacetyl)-L-alanyl]-S-phenylglycine t-butyl ester] | 80 | 71 | not responsive | significantly increased | – | – | – | – | – | –
COc1ccc2c(c1)[nH]c1c(C)nccc12 [harmine] | – | – | – | – | over 10 μM | statistically significant increase | 10 | decreased NFAT1 nuclear translocation after 4 hours | 15 | 26

From US12473537B2, “Three-dimensional cell culture, devices, and use thereof” (THE BROAD INSTITUTE, INC., priority 2020, dated 2025)
